Assay results reported in ChEMBL document CHEMBL3046747, “Assessment of species specificity of moulting accelerating compounds in Lepidoptera: comparison of activity between Bombyx mori and Spodoptera littoralis by in vitro reporter and in vivo toxicity assays” (Pest Manag Sci, 2010).
Active and inactive are the calls of the source. No cut-off for these calls is given here.

Legend:
[1] = biological target: T1, Ecdysone receptor (Spodoptera littoralis) (UniProt E3UJZ5); assay: Agonist activity at ecdysone receptor in Spodoptera littoralis Sl2 cells at 200 uM after 24 hr by luciferase reporter gene assay; assay type: cell-based
T1 sequence (whole entry): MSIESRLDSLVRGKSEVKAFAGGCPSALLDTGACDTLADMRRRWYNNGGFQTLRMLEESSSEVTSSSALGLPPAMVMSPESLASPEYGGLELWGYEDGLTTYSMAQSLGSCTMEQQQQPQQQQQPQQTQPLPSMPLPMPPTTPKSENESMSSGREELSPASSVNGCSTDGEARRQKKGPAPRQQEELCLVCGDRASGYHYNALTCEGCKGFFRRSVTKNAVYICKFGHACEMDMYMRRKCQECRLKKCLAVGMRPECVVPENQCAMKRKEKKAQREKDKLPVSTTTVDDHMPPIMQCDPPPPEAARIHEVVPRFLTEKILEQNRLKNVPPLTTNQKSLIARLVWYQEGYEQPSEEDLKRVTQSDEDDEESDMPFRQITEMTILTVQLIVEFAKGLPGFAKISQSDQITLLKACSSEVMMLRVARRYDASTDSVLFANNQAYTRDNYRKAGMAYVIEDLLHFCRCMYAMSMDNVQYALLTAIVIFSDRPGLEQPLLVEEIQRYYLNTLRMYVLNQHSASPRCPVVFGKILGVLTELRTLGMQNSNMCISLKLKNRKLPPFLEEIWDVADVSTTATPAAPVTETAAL

[2] = biological target: T2, Ecdysone receptor (Bombyx mori) (UniProt P49881); assay: Agonist activity at ecdysone receptor in Bombyx mori Bm5 cells at 200 uM after 24 hr by luciferase reporter gene assay; assay type: cell-based
T2 sequence (whole entry): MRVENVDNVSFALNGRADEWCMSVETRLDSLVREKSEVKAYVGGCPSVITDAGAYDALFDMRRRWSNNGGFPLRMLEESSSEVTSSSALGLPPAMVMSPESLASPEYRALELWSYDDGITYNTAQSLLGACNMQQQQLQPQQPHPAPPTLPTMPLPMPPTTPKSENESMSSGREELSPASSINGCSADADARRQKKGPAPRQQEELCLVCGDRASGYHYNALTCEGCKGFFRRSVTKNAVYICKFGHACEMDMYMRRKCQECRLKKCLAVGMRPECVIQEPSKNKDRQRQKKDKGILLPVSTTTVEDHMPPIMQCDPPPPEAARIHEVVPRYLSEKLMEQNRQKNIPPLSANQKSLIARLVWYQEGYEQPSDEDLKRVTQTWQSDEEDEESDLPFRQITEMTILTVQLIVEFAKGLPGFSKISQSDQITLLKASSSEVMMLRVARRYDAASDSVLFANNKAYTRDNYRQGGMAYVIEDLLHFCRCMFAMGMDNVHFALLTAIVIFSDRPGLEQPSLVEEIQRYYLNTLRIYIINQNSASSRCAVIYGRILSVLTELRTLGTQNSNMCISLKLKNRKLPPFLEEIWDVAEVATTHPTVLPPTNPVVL

Ecdysone receptor [3] = biological target: T3, Ecdysone receptor (Bombyx mori, UniProt P49881); assay: Antagonist activity at ecdysone receptor in Bombyx mori Bm5 cells assessed as tebufenozide-induced effect treated 24 hr before tebufenozide challenge measured after 24 hr by luciferase reporter gene assay; assay type: cell-based
T3 sequence (P49881 whole entry): T2 sequence (whole entry)

[4] = Cytotoxicity against Bombyx mori Bm5 cells assessed as cell viability after 24 hr by MTT assay; assay type: cell-based; details: read-out: pLC50 (converted)
[5] = Ratio of IC50 for ecdysone receptor in Bombyx mori Bm5 cells to LC50 for Bombyx mori Bm5 cells
Ecdysone receptor [6] = biological target: T4, Ecdysone receptor (Spodoptera littoralis, UniProt E3UJZ5); assay: Antagonist activity at ecdysone receptor in Spodoptera littoralis Sl2 cells assessed as tebufenozide-induced effect treated 24 hr before tebufenozide challenge measured after 24 hr by luciferase reporter gene assay; assay type: cell-based
T4 sequence (E3UJZ5 whole entry): T1 sequence (whole entry)

Spodoptera littoralis [7] = assay: Cytotoxicity against Spodoptera littoralis Sl2 cells assessed as cell viability after 24 hr by MTT assay; details: read-out: pLC50 (converted)
[8] = Ratio of IC50 for ecdysone receptor in Spodoptera littoralis Sl2 cells to LC50 for Spodoptera littoralis Sl2 cells
Ecdysone receptor [9] = biological target: T3, Ecdysone receptor; assay: Agonist activity at ecdysone receptor in Bombyx mori Bm5 cells after 24 hr by luciferase reporter gene assay; assay type: cell-based
[10] = biological target: T2, Ecdysone receptor (Bombyx mori); assay: Agonist activity at ecdysone receptor in Bombyx mori Bm5 cells after 24 hr by luciferase reporter gene assay relative to tebufenozide; assay type: cell-based
Ecdysone receptor [11] = biological target: T4, Ecdysone receptor; assay: Agonist activity at ecdysone receptor in Spodoptera littoralis Sl2 cells after 24 hr by luciferase reporter gene assay; assay type: cell-based
[12] = biological target: T1, Ecdysone receptor (Spodoptera littoralis); assay: Agonist activity at ecdysone receptor in Spodoptera littoralis Sl2 cells after 24 hr by luciferase reporter gene assay relative to tebufenozide; assay type: cell-based
Spodoptera littoralis [13] = assay: Larvicidal activity against Spodoptera littoralis assessed as mortality applied topically after 1 week; assay type: functional
Bombyx mori = assay: Larvicidal activity against Bombyx mori assessed as mortality applied topically after 1 week; assay type: functional
[14] = Selectivity ratio of EC50 for ecdysone receptor in Bombyx mori Bm5 cells to EC50 for ecdysone receptor in Spodoptera littoralis Sl2 cells; assay type: cell-based
[15] = Ratio of LD50 for Spodoptera littoralis to LD50 for Bombyx mori; assay type: functional

Compound | IC50 (Ecdysone receptor [3]) [µM] | CC50 at 24 h [4] [µM] | Ratio [5] | IC50 (Ecdysone receptor [6]) [µM] | CC50 at 24 h (Spodoptera littoralis [7]) [µM] | Ratio [8] | Efficacy [10] [%] | Efficacy [12] [%] | EC50 (Ecdysone receptor [9]; read-out: pEC50 (converted)) [µM] | EC50 (Ecdysone receptor [11]; read-out: pEC50 (converted)) [µM] | pLD50 (Spodoptera littoralis [13]) | pLD50 (Bombyx mori) | Ratio EC50 [14] | Ratio [15] | also measured
CCOc1ccccc1C(=O)N(NC(=O)c1ccccc1)C(C)(C)C |  |  |  |  |  |  |  |  |  |  |  |  |  |  | Activity [1]: inactive; Activity [2]: inactive
Cc1ccc(NC2CC(C)N(C(=O)c3ccc(C(C)(C)C)cc3)c3ccc(C)cc32)cc1 (stereo not drawn) | 24 | 11.5 | 2.09 | > 25.1 | > 25.1 |  |  |  |  |  |  |  |  |  | 
Cc1ccc(NC2CC(C)N(C(=O)c3ccc(Cl)cc3)c3ccc(C)cc32)cc1 (stereo not drawn) | 14.8 | 34.7 | 0.43 | 79.4 | > 501 | <0.16 |  |  |  |  |  |  |  |  | 
Cc1cc(C)cc(C(=O)C2(NC(=O)C(F)(F)F)CCCCC2)c1 | 67.6 | 234 | 0.29 | 16.2 | > 501 | <0.04 | 6 | 17 |  |  |  |  |  |  | pEC50 (Ecdysone receptor [9]): > 4; pEC50 (Ecdysone receptor [11]; sl2): > 4
CCOc1ccccc1C(=O)N(NC(=O)c1ccc([N+](=O)[O-])cc1)C(C)(C)C |  |  |  |  |  |  |  |  |  |  |  |  |  |  | Activity [1]: inactive; Activity [2]: inactive
CC1CCc2ccccc2N1C(=O)c1ccc(Cl)cc1 (stereo not drawn) | 47.9 | 69.2 | 0.69 | 55 | 102 | 0.53 |  |  |  |  |  |  |  |  | 
Cc1cc(C)cc(C(=O)C2(NC(=O)c3ccc4c(c3C)CCCO4)CCCCC2)c1 |  |  |  |  |  |  | 102 | 106 | 0.00437 | 0.00339 | <5.39 | 6.53 | 1.29 | > 13.8 | 
COc1cccc(C(=O)NN(C(=O)c2cc(C)cc(C)c2)C(C)(C)C)c1C [METHOXYFENOZIDE] |  |  |  |  |  |  | 103 | 100 | 0.00339 | 0.00603 | 7.68 | 8.18 | 0.56 | 3.16 | 
Cc1ccc(NC2CCN(C(=O)c3ccc(Cl)cc3)c3ccccc32)cc1 (stereo not drawn) | 8.91 | 21.4 | 0.42 |  | 427 | 0.12 |  |  |  |  |  |  |  |  | 
CC(C)(C)N(NC(=O)c1ccc(Cl)cc1)C(=O)c1ccccc1 [HALOFENOZIDE] |  |  |  |  |  |  | 95 | 107 | 0.0776 | 0.457 | 5.43 | 6.52 | 0.17 | 12.3 | 
CC1CC(Nc2ccc(F)cc2)c2cc(F)ccc2N1C(=O)c1ccc(Cl)cc1 (stereo not drawn) |  | 162 |  |  | > 501 |  | 59 | 64 |  |  |  |  |  |  | EC50 (Ecdysone receptor [9]; read-out: EC50): 55 µM; EC50 (Ecdysone receptor [11]; read-out: EC50): 60 µM
Cc1cc(C)cc(C(=O)N(NC(=O)c2ccc3c(c2C)CCCO3)C(C)(C)C)c1 [CHROMAFENOZIDE] |  |  |  |  |  |  | 98 | 103 | 0.001 | 0.00263 | 7.53 | 7.55 | 0.38 | 1.12 | 
Cc1ccc(NC2CC(C)N(C(=O)c3ccc(C)cc3)c3ccc(C)cc32)cc1 (stereo not drawn) | 26.9 | 30.2 | 0.89 | 74.1 | > 501 | <0.15 |  |  |  |  |  |  |  |  | 
CCc1ccc(C(=O)NN(C(=O)c2ccccc2)C(C)(C)C)cc1 |  |  |  |  |  |  | 84 | 110 | 0.0174 | 0.11 | <5.49 | 7.09 | 0.16 | > 39.8 | 
CCc1ccc(C(=O)NC(C(=O)c2cc(C)cc(C)c2)C(C)(C)C)cc1 (stereo not drawn) | 28.2 | 38.9 | 0.72 | 24 | > 501 | <0.05 | 11 | 17 | 35.5 | 46.8 |  |  | 0.76 |  | 
Cc1ccc(NC2CCN(C(=O)c3ccc(Cl)cc3)CC2)cc1 | 2.24 | < 5.01 |  | 15.1 | 27.5 | 0.55 |  |  |  |  |  |  |  |  | 
Cc1cc(C)cc(C(=O)N(NC(=O)c2ccccc2)C(C)(C)C)c1 |  |  |  |  |  |  | 118 | 75 | 0.2 | 0.501 | <5.49 | 5.98 | 0.39 | > 3.09 | 
Cc1ccc(N(C(=O)c2ccc(Cl)cc2)C2CC(C)N(C(=O)c3ccc(Cl)cc3)c3ccc(C)cc32)cc1 (stereo not drawn) | 13.5 | 7.08 | 1.91 | 12.9 | > 15.1 | <0.85 |  |  |  |  |  |  |  |  | 
